# According to PMC9403976, “Elucidating the path to Plasmodium prolyl-tRNA synthetase inhibitors that overcome halofuginone resistance” (Nature Communications, 2022):
# Where “and” joins values, the source holds several entries; their conditions need not be identical. Equal entries are not always repeated. Where two headings read alike, the source gives them in different places.
# Legend:
# HsProRS = HsProRS (Homo sapiens, UniProt P07814); assay: TR-FRET ligand displacement assay with tracer MAT379 (CoraFluor-1-Halo and anti-His6 antibody formats); type: binding; parameters: made in house; host or cells: E. coli SoluBL-21; conditions: for TR-FRET dose-response, normalized signal (SI Fig 11): individual replicates
# HsProRS, sequence (P07814 996-1512): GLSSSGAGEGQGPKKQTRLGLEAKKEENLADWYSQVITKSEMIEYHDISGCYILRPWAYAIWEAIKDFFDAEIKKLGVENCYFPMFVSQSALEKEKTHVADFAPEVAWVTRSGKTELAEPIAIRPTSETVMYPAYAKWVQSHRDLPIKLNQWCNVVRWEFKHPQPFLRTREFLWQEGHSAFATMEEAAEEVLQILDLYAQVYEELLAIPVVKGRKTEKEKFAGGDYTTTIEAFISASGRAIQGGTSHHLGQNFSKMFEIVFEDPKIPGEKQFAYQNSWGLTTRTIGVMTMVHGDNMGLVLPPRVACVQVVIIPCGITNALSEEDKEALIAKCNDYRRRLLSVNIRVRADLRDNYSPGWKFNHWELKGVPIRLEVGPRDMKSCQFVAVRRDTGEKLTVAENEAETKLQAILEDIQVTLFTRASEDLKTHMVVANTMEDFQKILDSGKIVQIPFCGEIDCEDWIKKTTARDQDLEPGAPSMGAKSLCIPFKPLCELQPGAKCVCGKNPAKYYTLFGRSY
# PfcProRS = molecular target: T1, PfcProRS (Plasmodium falciparum, UniProt Q8I5R7); type: binding; conditions: single replicates
# T1 construct: made in house; host or cells: E. coli SoluBL-21
# T1 sequence (Q8I5R7 249-746): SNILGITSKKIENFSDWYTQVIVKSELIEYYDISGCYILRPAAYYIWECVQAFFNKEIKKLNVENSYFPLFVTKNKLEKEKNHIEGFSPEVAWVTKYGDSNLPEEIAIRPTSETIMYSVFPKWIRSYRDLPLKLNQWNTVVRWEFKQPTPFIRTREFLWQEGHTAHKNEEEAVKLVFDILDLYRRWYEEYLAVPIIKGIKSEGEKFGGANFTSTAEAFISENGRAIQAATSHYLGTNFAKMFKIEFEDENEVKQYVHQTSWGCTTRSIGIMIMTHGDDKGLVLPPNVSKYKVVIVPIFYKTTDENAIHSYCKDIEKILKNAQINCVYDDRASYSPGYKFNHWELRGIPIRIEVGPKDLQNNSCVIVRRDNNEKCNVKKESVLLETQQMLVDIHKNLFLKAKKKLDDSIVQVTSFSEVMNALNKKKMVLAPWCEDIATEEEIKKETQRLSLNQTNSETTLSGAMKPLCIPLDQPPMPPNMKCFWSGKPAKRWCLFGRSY
compound,measurement,setting,value
CC(C)N(C(=O)Nc1nccnc1C(=O)NC1Cc2ccccc2C1)C(C)C [compound 5],Kd,"HsProRS; HsProRS - best Kd, SI Fig 16a, values on -log scale",1020 nM
same,"normalized TR-FRET ligand displacement signal, dose-response replicates (SI Fig 6)",HsProRS; Log[inhibitor] (M) -5.000,8.71E-01 and 7.50E-01 and 6.79E-01
same,"TR-FRET dose-response, normalized signal (SI Fig 11)",HsProRS; Log[inhibitor] (M) -5.000,6.19E-01 and 6.48E-01 and 6.40E-01
same,"normalized TR-FRET ligand displacement signal, dose-response replicates (SI Fig 6)",HsProRS; Log[inhibitor] (M) -5.301,9.58E-01 and 7.89E-01 and 8.27E-01
same,"TR-FRET dose-response, normalized signal (SI Fig 11)",HsProRS; Log[inhibitor] (M) -5.301,7.58E-01 and 7.59E-01 and 7.76E-01
same,"normalized TR-FRET ligand displacement signal, dose-response replicates (SI Fig 6)",HsProRS; Log[inhibitor] (M) -5.601,8.37E-01 and 1.05E+00 and 1.03E+00
same,"TR-FRET dose-response, normalized signal (SI Fig 11)",HsProRS; Log[inhibitor] (M) -5.601,8.37E-01 and 8.60E-01 and 8.59E-01
same,"normalized TR-FRET ligand displacement signal, dose-response replicates (SI Fig 6)",HsProRS; Log[inhibitor] (M) -5.904,1.09E+00 and 1.03E+00 and 9.64E-01
same,"TR-FRET dose-response, normalized signal (SI Fig 11)",HsProRS; Log[inhibitor] (M) -5.904,9.61E-01 and 8.97E-01 and 9.02E-01
same,"normalized TR-FRET ligand displacement signal, dose-response replicates (SI Fig 6)",HsProRS; Log[inhibitor] (M) -6.208,9.53E-01 and 8.96E-01 and 9.38E-01
same,"TR-FRET dose-response, normalized signal (SI Fig 11)",HsProRS; Log[inhibitor] (M) -6.208,9.36E-01 and 9.49E-01 and 9.17E-01
same,"normalized TR-FRET ligand displacement signal, dose-response replicates (SI Fig 6)",HsProRS; Log[inhibitor] (M) -6.509,9.42E-01 and 9.99E-01 and 1.01E+00
same,"TR-FRET dose-response, normalized signal (SI Fig 11)",HsProRS; Log[inhibitor] (M) -6.509,8.96E-01 and 8.83E-01 and 9.32E-01
same,"normalized TR-FRET ligand displacement signal, dose-response replicates (SI Fig 6)",HsProRS; Log[inhibitor] (M) -6.796,1.20E+00 (2×) and 1.11E+00
same,"TR-FRET dose-response, normalized signal (SI Fig 11)",HsProRS; Log[inhibitor] (M) -6.796,9.19E-01 and 9.16E-01 and 9.35E-01
same,"normalized TR-FRET ligand displacement signal, dose-response replicates (SI Fig 6)",HsProRS; Log[inhibitor] (M) -7.108,9.92E-01 and 1.02E+00 and 1.18E+00
same,"TR-FRET dose-response, normalized signal (SI Fig 11)",HsProRS; Log[inhibitor] (M) -7.108,9.11E-01 and 9.16E-01 and 8.81E-01
same,"normalized TR-FRET ligand displacement signal, dose-response replicates (SI Fig 6)",HsProRS; Log[inhibitor] (M) -7.409,8.86E-01 and 9.18E-01 and 1.10E+00
same,"TR-FRET dose-response, normalized signal (SI Fig 11)",HsProRS; Log[inhibitor] (M) -7.409,9.21E-01 and 9.28E-01 and 9.54E-01
same,"normalized TR-FRET ligand displacement signal, dose-response replicates (SI Fig 6)",HsProRS; Log[inhibitor] (M) -7.710,1.00E+00 and 9.56E-01 and 9.99E-01
same,"TR-FRET dose-response, normalized signal (SI Fig 11)",HsProRS; Log[inhibitor] (M) -7.710,9.54E-01 and 9.03E-01 and 9.47E-01
same,"normalized TR-FRET ligand displacement signal, dose-response replicates (SI Fig 6)",HsProRS; Log[inhibitor] (M) -8.000,1.08E+00 and 9.18E-01 and 9.67E-01
same,"TR-FRET dose-response, normalized signal (SI Fig 11)",HsProRS; Log[inhibitor] (M) -8.000,9.82E-01 and 9.20E-01 and 9.02E-01
same,"normalized TR-FRET ligand displacement signal, dose-response replicates (SI Fig 6)",HsProRS; Log[inhibitor] (M) -8.301,9.61E-01 and 8.84E-01 and 1.00E+00
same,"TR-FRET dose-response, normalized signal (SI Fig 11)",HsProRS; Log[inhibitor] (M) -8.301,9.50E-01 and 9.79E-01 and 9.60E-01
same,"normalized TR-FRET ligand displacement signal, dose-response replicates (SI Fig 6)",HsProRS; Log[inhibitor] (M) -8.602,9.71E-01 and 1.01E+00 and 8.97E-01
same,"TR-FRET dose-response, normalized signal (SI Fig 11)",HsProRS; Log[inhibitor] (M) -8.602,9.46E-01 and 9.17E-01 and 9.64E-01
same,"normalized TR-FRET ligand displacement signal, dose-response replicates (SI Fig 6)",HsProRS; Log[inhibitor] (M) -9.000,9.83E-01 and 9.95E-01 and 9.23E-01
same,"TR-FRET dose-response, normalized signal (SI Fig 11)",HsProRS; Log[inhibitor] (M) -9.000,9.65E-01 and 9.90E-01 and 9.18E-01
same,"normalized TR-FRET ligand displacement signal, dose-response replicates (SI Fig 6)",HsProRS; Log[inhibitor] (M) -9.301,9.67E-01 and 9.33E-01 and 1.01E+00
same,"TR-FRET dose-response, normalized signal (SI Fig 11)",HsProRS; Log[inhibitor] (M) -9.301,9.51E-01 and 9.69E-01 and 8.77E-01
same,"dose-response signal (normalized), SI Fig 8",PfcProRS; Log[inhibitor] (M) -5.000,1.47E-01 and 1.35E-01 and 1.83E-01
same,"dose-response signal (normalized), SI Fig 8",PfcProRS; Log[inhibitor] (M) -5.301,3.88E-01 and 4.48E-01 and 4.36E-01
same,"dose-response signal (normalized), SI Fig 8",PfcProRS; Log[inhibitor] (M) -5.601,7.44E-01 and 8.07E-01 and 7.69E-01
same,"dose-response signal (normalized), SI Fig 8",PfcProRS; Log[inhibitor] (M) -5.904,8.45E-01 and 8.57E-01 and 9.58E-01
same,"dose-response signal (normalized), SI Fig 8",PfcProRS; Log[inhibitor] (M) -6.208,8.74E-01 and 8.91E-01 and 9.30E-01
same,"dose-response signal (normalized), SI Fig 8",PfcProRS; Log[inhibitor] (M) -6.509,9.93E-01 and 1.13E+00 and 1.03E+00
same,"dose-response signal (normalized), SI Fig 8",PfcProRS; Log[inhibitor] (M) -6.796,1.01E+00 and 9.89E-01 and 1.13E+00
same,"dose-response signal (normalized), SI Fig 8",PfcProRS; Log[inhibitor] (M) -7.108,9.82E-01 and 9.95E-01 and 1.21E+00
same,"dose-response signal (normalized), SI Fig 8",PfcProRS; Log[inhibitor] (M) -7.409,1.20E+00 and 1.06E+00 and 1.08E+00
same,"dose-response signal (normalized), SI Fig 8",PfcProRS; Log[inhibitor] (M) -7.710,1.11E+00 (2×) and 1.12E+00
same,"dose-response signal (normalized), SI Fig 8",PfcProRS; Log[inhibitor] (M) -8.000,1.01E+00 and 1.06E+00 and 1.07E+00
same,"dose-response signal (normalized), SI Fig 8",PfcProRS; Log[inhibitor] (M) -8.301,9.64E-01 and 1.10E+00 and 1.14E+00
same,"dose-response signal (normalized), SI Fig 8",PfcProRS; Log[inhibitor] (M) -8.602,8.54E-01 and 1.04E+00 and 1.07E+00
same,"dose-response signal (normalized), SI Fig 8",PfcProRS; Log[inhibitor] (M) -9.000,9.25E-01 and 9.26E-01 and 1.03E+00
same,"dose-response signal (normalized), SI Fig 8",PfcProRS; Log[inhibitor] (M) -9.301,8.80E-01 and 9.99E-01 and 1.04E+00
